Measurements reported in ChEMBL document CHEMBL4118279, “1,3-Di(quinolin-2-yl)guanidine binds to GGCCCC hexanucleotide repeat DNA in C9ORF72” (Bioorg Med Chem Lett, 2018).
Each block holds one compound with its values, some of them ahead of it. Calls of active or inactive are those of the source. The calls are words filed in the database; no cut-off is given here.

Tests used:
[1] = Binding affinity to GGCCCC/GGCCCC motif-containing duplex DNA (unknown origin) assessed as change in melting temperature at 20 uM by UV-spectrophotometric method
[2] = Binding affinity to GGAACC/GGAACC motif-containing duplex DNA (unknown origin) assessed as change in melting temperature at 20 uM by UV-spectrophotometric method
[3] = Binding affinity to GGTTCC/GGTTCC motif-containing duplex DNA (unknown origin) assessed as change in melting temperature at 20 uM by UV-spectrophotometric method
[4] = Binding affinity to GGGGCC/GGGGCC motif-containing duplex DNA (unknown origin) assessed as change in melting temperature at 20 uM by UV-spectrophotometric method
[5] = Binding affinity to GGCCCC/GGGGCC motif-containing duplex DNA (unknown origin) assessed as change in melting temperature at 20 uM by UV-spectrophotometric method
[6] = Binding affinity to GGCCC/GGCCC motif-containing duplex DNA (unknown origin) assessed as change in melting temperature at 20 uM by UV-spectrophotometric method
[7] = Binding affinity to GGCCCC/GGCCCC motif-containing duplex DNA (unknown origin) assessed as formation of CD bands at 20 uM at 310 to 345 nm by CD spectrometry
[8] = Binding affinity to GGTCCC/GGCCCC motif-containing duplex DNA (unknown origin) assessed as formation of CD bands at 20 uM at 300 to 345 nm by CD spectrometry
[9] = Binding affinity to GGCTCC/GGCCCC motif-containing duplex DNA (unknown origin) assessed as formation of CD bands at 20 uM at 310 to 345 nm by CD spectrometry
[10] = Binding affinity to GGTCCC/GGTCCC motif-containing duplex DNA (unknown origin) assessed as formation of CD bands at 20 uM at 310 to 345 nm by CD spectrometry
[11] = Binding affinity to GGTCCC/GGCCCC motif-containing duplex DNA (unknown origin) assessed as change in melting temperature at 20 uM by UV-spectrophotometric method
[12] = Binding affinity to GGCTCC/GGCCCC motif-containing duplex DNA (unknown origin) assessed as change in melting temperature at 20 uM by UV-spectrophotometric method
[13] = Binding affinity to GGTCCC/GGCTCC motif-containing duplex DNA (unknown origin) assessed as change in melting temperature at 20 uM by UV-spectrophotometric method
[14] = Binding affinity to GGTCCC/GGTCCC motif-containing duplex DNA (unknown origin) assessed as change in melting temperature at 20 uM by UV-spectrophotometric method
[15] = Binding affinity to GGTTCC/GGCCCC motif-containing duplex DNA (unknown origin) assessed as change in melting temperature at 20 uM by UV-spectrophotometric method
[16] = Binding affinity to GGCTCC/GGCTCC motif-containing duplex DNA (unknown origin) assessed as change in melting temperature at 20 uM by UV-spectrophotometric method
[17] = Binding affinity to GGCCCC/GGCCCC motif-containing duplex DNA (unknown origin) at 40 uM by ESI-TOF-MS analysis
[18] = Binding affinity to GGCCCC/GGCCCC motif-containing duplex DNA (unknown origin) at 80 uM by ESI-TOF-MS analysis
[19] = Binding affinity to GGCCCC/GGGGCC motif-containing duplex DNA (unknown origin) at 40 uM by ESI-TOF-MS analysis
[20] = Binding affinity to (GGCCCC)9 motif-containing duplex DNA (unknown origin) assessed as melting temperature at 20 uM by UV-spectrophotometric method
[21] = Binding affinity to (GGCCCC)9 motif-containing duplex DNA (unknown origin) assessed as formation of CD bands at 20 uM at 245 to 282 nm by CD spectrometry
[22] = Binding affinity to (GGCCCC)5 motif-containing duplex DNA (unknown origin) at 80 uM by ESI-TOF-MS analysis

ΔTm [1]: 19.6 °C
ΔTm [2]: 2.1 °C
ΔTm [3]: -0.1 °C
ΔTm [4]: 0.7 °C
ΔTm [5]: -1 °C
ΔTm [6]: 7.8 °C
Activity [7]: Active
Activity [8]: Active
Activity [9]: inactive
Activity [10]: inactive
ΔTm [11]: 14.4 °C
ΔTm [12]: 11.2 °C
ΔTm [13]: 8.9 °C
ΔTm [14]: 11.5 °C
ΔTm [15]: 8.6 °C
ΔTm [16]: 8.3 °C
Activity [17]: Active
Activity [18]: Active
Activity [19]: inactive
Tm [20]: 67.8 °C
Activity [21]: Active
Activity [22]: Active
SMILES: N=C(Nc1ccc2ccccc2n1)Nc1ccc2ccccc2n1

ΔTm [1]: 3.4 °C
ΔTm [2]: -0.5 °C
ΔTm [3]: -1.3 °C
ΔTm [4]: -0.7 °C
ΔTm [5]: -2.8 °C
Activity [7]: Active
SMILES: N=C(N)Nc1ccc2ccccc2n1
